Measurements as given in patent US12583861B2, “Derivatives of imidazo[4,5-d]pyridazine, their preparation and their therapeutic application” (SANOFI, priority 2021, dated 2026).
Counter-ions that a name gives are not always drawn. Like-named read-outs stand apart in the source and are kept apart here.

How the values were obtained:
human TLR8 = target: T1, human TLR8 (Homo sapiens, UniProt Q9NR97); assay: HEK-Blue hTLR8 reporter cell assay (SEAP, NF-kB/AP-1) for stimulation of human TLR8; assay type: cell-based; settings: HEK-Blue hTLR8 cells; for activation at 20 µM: 24 h, at 20000 nM; for EC50: 24 h incubation, SEAP readout, read-out: TLR8_EC50
T1 construct: host or cells: HEK293 (HEK-Blue hTLR8)
T1 sequence (Q9NR97 27-1041): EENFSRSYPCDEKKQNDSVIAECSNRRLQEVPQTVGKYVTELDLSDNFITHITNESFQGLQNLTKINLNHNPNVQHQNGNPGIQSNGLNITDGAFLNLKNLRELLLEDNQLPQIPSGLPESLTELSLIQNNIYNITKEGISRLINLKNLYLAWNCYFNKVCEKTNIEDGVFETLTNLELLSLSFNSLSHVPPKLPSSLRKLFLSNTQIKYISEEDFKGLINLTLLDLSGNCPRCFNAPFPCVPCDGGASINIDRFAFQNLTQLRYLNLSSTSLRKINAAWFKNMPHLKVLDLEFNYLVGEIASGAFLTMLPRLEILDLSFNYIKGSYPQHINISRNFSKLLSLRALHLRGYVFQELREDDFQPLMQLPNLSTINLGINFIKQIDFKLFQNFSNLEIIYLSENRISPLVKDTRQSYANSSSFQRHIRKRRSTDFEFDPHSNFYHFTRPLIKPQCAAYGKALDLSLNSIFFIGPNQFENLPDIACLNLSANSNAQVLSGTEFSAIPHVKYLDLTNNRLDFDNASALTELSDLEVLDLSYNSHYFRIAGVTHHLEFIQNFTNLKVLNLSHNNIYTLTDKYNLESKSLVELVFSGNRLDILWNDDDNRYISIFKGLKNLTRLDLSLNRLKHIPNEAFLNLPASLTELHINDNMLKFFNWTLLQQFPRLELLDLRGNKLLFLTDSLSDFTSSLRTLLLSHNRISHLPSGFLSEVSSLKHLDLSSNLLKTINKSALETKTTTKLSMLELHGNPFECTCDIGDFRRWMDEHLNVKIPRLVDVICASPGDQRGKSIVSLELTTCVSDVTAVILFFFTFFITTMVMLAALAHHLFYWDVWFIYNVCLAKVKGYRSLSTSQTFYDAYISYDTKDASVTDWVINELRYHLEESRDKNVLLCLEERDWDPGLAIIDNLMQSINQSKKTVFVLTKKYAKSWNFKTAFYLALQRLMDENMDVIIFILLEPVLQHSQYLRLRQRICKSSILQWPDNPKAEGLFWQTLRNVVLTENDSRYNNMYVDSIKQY
In short: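 HEK293 cells carrying hTLR8 and a SEAP reporter driven by NF-κB/AP-1 sites were seeded at 3.10E4 cells/well and held 18 to 24 h at 37° C., 5% CO2 before compound addition. Supernatant SEAP measured with QUANTI-Blue™.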

human TLR7 = target: T2, human TLR7 (Homo sapiens, UniProt Q9NYK1); assay: HEK-Blue hTLR7 reporter cell assay (SEAP, NF-kB/AP-1) for stimulation of human TLR7; assay type: cell-based; settings: HEK-Blue hTLR7 cells; for activation at 20 µM: 24 h, at 20000 nM; for EC50: read-out: TLR7_EC50
T2 construct: host or cells: HEK293 (HEK-Blue hTLR7)
T2 sequence (Q9NYK1 27-1049): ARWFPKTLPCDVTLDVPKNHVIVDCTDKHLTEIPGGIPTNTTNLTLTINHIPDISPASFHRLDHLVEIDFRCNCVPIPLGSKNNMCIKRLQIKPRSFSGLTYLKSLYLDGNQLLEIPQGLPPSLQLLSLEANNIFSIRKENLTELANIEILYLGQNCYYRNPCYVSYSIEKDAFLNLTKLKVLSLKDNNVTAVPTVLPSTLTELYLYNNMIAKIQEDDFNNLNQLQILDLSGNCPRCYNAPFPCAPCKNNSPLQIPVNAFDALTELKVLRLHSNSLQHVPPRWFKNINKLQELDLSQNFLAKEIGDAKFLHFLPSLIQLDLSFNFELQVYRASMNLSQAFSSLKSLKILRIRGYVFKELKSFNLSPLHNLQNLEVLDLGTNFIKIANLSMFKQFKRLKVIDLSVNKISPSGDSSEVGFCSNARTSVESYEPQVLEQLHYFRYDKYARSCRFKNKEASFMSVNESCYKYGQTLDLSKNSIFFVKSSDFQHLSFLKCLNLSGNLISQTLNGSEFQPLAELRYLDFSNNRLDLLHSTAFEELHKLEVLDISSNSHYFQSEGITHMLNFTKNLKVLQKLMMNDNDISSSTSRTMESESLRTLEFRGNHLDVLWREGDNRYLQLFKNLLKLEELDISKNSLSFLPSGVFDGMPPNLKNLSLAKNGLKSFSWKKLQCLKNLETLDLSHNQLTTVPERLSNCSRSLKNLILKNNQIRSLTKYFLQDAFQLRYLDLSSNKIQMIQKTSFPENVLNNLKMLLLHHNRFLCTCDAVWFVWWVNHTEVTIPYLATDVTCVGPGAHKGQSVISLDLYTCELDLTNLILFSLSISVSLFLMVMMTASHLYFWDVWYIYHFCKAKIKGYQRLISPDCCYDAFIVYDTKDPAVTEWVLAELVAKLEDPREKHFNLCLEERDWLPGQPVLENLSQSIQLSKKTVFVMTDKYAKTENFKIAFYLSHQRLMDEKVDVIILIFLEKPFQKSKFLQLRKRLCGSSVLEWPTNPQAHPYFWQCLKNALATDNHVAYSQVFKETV
In short: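 HEK293 cells expressing hTLR7 with NF-κB/AP-1-driven SEAP reporter, seeded 3.10E4 cells/well, pre-incubated 18–24 h, then exposed to 3-fold compound dilutions (0.01–20 μM) for 24 h at 37 °C. Supernatant SEAP read with QUANTI-Blue; EC50 as concentration giving 50% activation.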

| Structure (SMILES) | activation at 20 µM (human TLR8) [%] | activation at 20 µM (human TLR7) [%] | EC50 (human TLR8) [µM] | EC50 (human TLR7; 24 h incubation, SEAP readout) [µM] | EC50 (human TLR7; μM) [µM] |
| --- | --- | --- | --- | --- | --- |
| CCCCc1nc2c(N)nnc(-c3cc[nH]c3)c2n1C[C@H]1CC[C@H](N)CC1 [Compound 141, 1-(((1R,4R)-4-aminocyclohexyl)methyl)-2-butyl-7-(1H-pyrrol-3-yl)-1H-imidazo[4,5-d]pyridazin-4-amine] | 19.6 | 26.8 | – | – | – |
| CCCCc1nc2c(N)nnc(N3CCCC3)c2n1C[C@H]1CC[C@H](CN)CC1 [Compound 142, 1-(((1R,4R)-4-(aminomethyl)cyclohexyl)methyl)-2-butyl-7-(pyrrolidin-1-yl)-1H-imidazo[4,5-d]pyridazin-4-amine] | – | – | > 20 | 2.64 | – |
| CCCCc1nc2c(N)nnc(N3CCCC3)c2n1C[C@H]1CC[C@H](N)CC1 [Compound 143, 3-[(4-aminocyclohexyl)methyl]-2-butyl-4-pyrrolidin-1-yl-imidazo[4,5-d]pyridazin-7-amine] | – | – | > 20 | 11 | – |
| CCCCc1nc2c(N)nnc(C3=CCNC3)c2n1Cc1ccc(CN)cc1 [Compound 144, 1-[[4-(aminomethyl)phenyl]methyl]-2-butyl-7-(2,5-dihydro-1H-pyrrol-3-yl)imidazo[4,5-d]pyridazin-4-amine] | 14.7 | – | – | – | > 20 |
| CCCCc1nc2c(N)nnc(C3CCNC3)c2n1Cc1ccc(CN)cc1 (stereo not drawn) [Compound 145, 1-[[4-(aminomethyl)phenyl]methyl]-2-butyl-7-pyrrolidin-3-yl-imidazo[4,5-d]pyridazin-4-amine] | 11.7 | 2.2 | – | – | – |
| CCCCc1nc2c(N)nnc(OC(C)C)c2n1CCCCCCN [Compound 146, 3-(6-aminohexyl)-2-butyl-4-isopropoxy-imidazo[4,5-d]pyridazin-7-amine dihydrochloride salt] | – | – | > 20 | 0.191 | – |
| CCCCc1nc2c(N)nnc(OC(C)C)c2n1CCCCCCNC1CCOCC1 [Compound 147, 2-butyl-4-isopropoxy-3-[6-(tetrahydropyran-4-ylamino)hexyl]imidazo[4,5-d]pyridazin-7-amine; dihydrochloride] | – | – | 7.72 | 0.0204 | – |
| CCCCc1nc2c(N)nnc(OC(C)C)c2n1CCCCCCN(C(C)=O)C1CCOCC1 [Compound 148, N-[6-(7-amino-2-butyl-4-isopropoxy-imidazo[4,5-d]pyridazin-3-yl)hexyl]-N-tetrahydropyran-4-yl-acetamide] | – | – | > 20 | 0.0346 | – |
| CCCCc1nc2c(N)nnc(OC(C)C)c2n1CCCCN [Compound 149, 3-(4-aminobutyl)-2-butyl-4-isopropoxy-imidazo[4,5-d]pyridazin-7-amine dihydrochloride salt] | – | – | > 20 | 12.6 | – |
| CCCCc1nc2c(N)nnc(OC(C)C)c2n1CCCCNC1CCOCC1 [Compound 150, 2-butyl-4-isopropoxy-3-[4-(tetrahydropyran-4-ylamino)butyl]imidazo[4,5-d]pyridazin-7-amine hydrochloride salt] | – | – | 11.4 | 2.21 | – |
| CCCCc1nc2c(N)nnc(OC(C)C)c2n1CCCCN(C(C)=O)C1CCOCC1 [Compound 151, N-[4-(7-amino-2-butyl-4-isopropoxy-imidazo[4,5-d]pyridazin-3-yl)butyl]-N-tetrahydropyran-4-yl-acetamide] | – | – | > 20 | 11.2 | – |
| CCCCc1nc2c(N)nnc(OC(C)C)c2n1CCCCNC1CS(=O)(=O)C1 [Compound 152, 2-butyl-3-[4-[(1,1-dioxothietan-3-yl)amino]butyl]-4-isopropoxy-imidazo[4,5-d]pyridazin-7-amine] | – | – | > 20 | 4.39 | – |
| CCCCc1nc2c(N)nnc(OC(C)C)c2n1CCCCN(C(C)=O)C1CS(=O)(=O)C1 [Compound 153, N-[4-(7-amino-2-butyl-4-isopropoxy-imidazo[4,5-d]pyridazin-3-yl)butyl]-N-(1,1-dioxothietan-3-yl)acetamide] | – | – | > 20 | 18.4 | – |
| CCCCc1nc2c(N)nnc(OC(C)C)c2n1CCCCCCN(C(C)=O)C1CS(=O)(=O)C1 [Compound 155, N-[6-(7-amino-2-butyl-4-isopropoxy-imidazo[4,5-d]pyridazin-3-yl)hexyl]-N-(1,1-dioxothietan-3-yl)acetamide hydrochloride salt] | – | – | > 20 | 0.596 | – |
| CCCCc1nc2c(N)nnc(OC(C)C)c2n1CC(C)(CO)CO [Compound 156, 2-[(7-amino-2-butyl-4-isopropoxy-imidazo[4,5-d]pyridazin-3-yl)methyl]-2-methyl-propane-1,3-diol; hydrochloride] | – | – | 0.005 | 0.075 | – |
| CCCCc1nc2c(N)nnc(OC(C)C)c2n1CC(CO)CO [Compound 157, 2-[(7-amino-2-butyl-4-isopropoxy-imidazo[4,5-d]pyridazin-3-yl)methyl]propane-1,3-diol; hydrochloride] | – | – | 0.007 | 0.531 | – |
| CCCc1nc2c(N)nnc(OC(C)C)c2n1Cc1ccc(CN)cc1 [Compound 158, 1-(4-(aminomethyl)benzyl)-7-isopropoxy-2-propyl-1H-imidazo[4,5-d]pyridazin-4-amine] | – | – | > 20 | 0.717 | – |
| CCOCc1nc2c(N)nnc(OC(C)C)c2n1Cc1ccc(CN)cc1 [Compound 159, 1-(4-(aminomethyl)benzyl)-2-(ethoxymethyl)-7-isopropoxy-1H-imidazo[4,5-d]pyridazin-4-amine] | – | – | > 20 | 0.247 | – |
| Cc1nc2c(N)nnc(OC(C)C)c2n1Cc1ccc(CN)cc1 [Compound 160, 1-(4-(aminomethyl)benzyl)-7-isopropoxy-2-methyl-1H-imidazo[4,5-d]pyridazin-4-amine] | 18 | 35 | – | – | – |
| CCCSc1nc2c(N)nnc(OC(C)C)c2n1Cc1ccc(CN)cc1 [Compound 161, 3-[[4-(aminomethyl)phenyl]methyl]-4-isopropoxy-2-propylsulfanyl-imidazo[4,5-d]pyridazin-7-amine] | – | – | 0.398 | 0.205 | – |
| CCC[S+]([O-])c1nc2c(N)nnc(OC(C)C)c2n1Cc1ccc(CN)cc1 (stereo not drawn) [Compound 162, 3-[[4-(aminomethyl)phenyl]methyl]-4-isopropoxy-2-propylsulfinyl-imidazo[4,5-d]pyridazin-7-amine] | – | – | > 20 | 6.7 | – |
